Results as given in the NIST ThermoML archive (doi:10.1021/je800282a).
± gives the expanded uncertainty stated by the source.

Assays:
[1] = for viscosity: 101.33 kPa, Liquid
[2] = refractive index (Na D-line) (dimensionless); settings: 101.33 kPa, Liquid
[3] = wn = mass fraction of the nth substance listed; settings: for viscosity: 101 kPa, Liquid
[4] = refractive index (Na D-line) (dimensionless); wn = mass fraction of the nth substance listed; settings: 101 kPa, Liquid

CN(CCO)CCO [N-methyldiethanolamine]
Settings	refractive index, [2]	surface tension liquid-gas, [1] [mN/m]	viscosity, [1] [mPa·s]
298.15 K	–	–	77.85 ± 4.8
303.15 K	1.46532 ± 0.0012	38.74 ± 1.1	–
308.15 K	–	–	43.9 ± 1.4
313.15 K	1.46074 ± 0.0012	37.48 ± 1	–
318.15 K	1.45892 ± 0.0012	–	27.44 ± 0.92
323.15 K	1.45708 ± 0.0012	36.82 ± 1	–
328.15 K	–	–	17.89 ± 0.62
333.15 K	1.45287 ± 0.0012	35.31 ± 0.98	–
338.15 K	–	–	12.34 ± 0.45

CN(CCO)CCO [N-methyldiethanolamine] + O
Settings	refractive index	surface tension liquid-gas [mN/m]	viscosity [mPa·s]
[3], 298.15 K, w1 = 0.3228	–	–	3.48 ± 0.17
[3], 298.15 K, w1 = 0.488	–	–	9.25 ± 0.35
[3], 303.15 K, w1 = 0.3288	–	53.16 ± 1.4	–
[3], 303.15 K, w1 = 0.488	–	47.56 ± 1.3	–
[3], 308.15 K, w1 = 0.3228	–	–	2.26 ± 0.13
[3], 308.15 K, w1 = 0.488	–	–	6.14 ± 0.25
[3], 313.15 K, w1 = 0.3288	–	52.38 ± 1.4	–
[3], 313.15 K, w1 = 0.488	–	46.92 ± 1.3	–
[3], 318.15 K, w1 = 0.3228	–	–	1.82 ± 0.12
[3], 318.15 K, w1 = 0.488	–	–	4.37 ± 0.2
[3], 323.15 K, w1 = 0.3288	–	51.42 ± 1.4	–
[3], 323.15 K, w1 = 0.488	–	45.58 ± 1.2	–
[3], 328.15 K, w1 = 0.3228	–	–	1.34 ± 0.11
[3], 328.15 K, w1 = 0.488	–	–	3.46 ± 0.17
[3], 333.15 K, w1 = 0.3288	–	50.67 ± 1.4	–
[3], 333.15 K, w1 = 0.488	–	44.83 ± 1.2	–
[3], 338.15 K, w1 = 0.3228	–	–	1.17 ± 0.1
[3], 338.15 K, w1 = 0.488	–	–	2.81 ± 0.15
[4], 303.15 K, w1 = 0.3228	1.37748 ± 0.0013	–	–
[4], 303.15 K, w1 = 0.488	1.40298 ± 0.0013	–	–
[4], 313.15 K, w1 = 0.3228	1.37604 ± 0.0013	–	–
[4], 313.15 K, w1 = 0.488	1.39971 ± 0.0013	–	–
[4], 318.15 K, w1 = 0.3228	1.37467 ± 0.0013	–	–
[4], 318.15 K, w1 = 0.488	1.39629 ± 0.0013	–	–
[4], 323.15 K, w1 = 0.3228	1.37305 ± 0.0013	–	–
[4], 323.15 K, w1 = 0.488	1.39254 ± 0.0013	–	–
[4], 333.15 K, w1 = 0.3228	1.37134 ± 0.0013	–	–
[4], 333.15 K, w1 = 0.488	1.38821 ± 0.0013	–	–
